Values of other authors as cited in paper PMC3341490 (Nuclear Medicine and Biology, 2012).

Tests used:
[1] = copper complex; ref [24]
[2] = system: GRPR-expressing, PC-3 xenografted tumors in SCID mice

Compound | stability constant (log K) [1] | PC-3 tumor uptake ([2]; 1 hour, ref [18]-[19]) [% ID/g] | retention of radioactivity in the tumor, relative to 1 h ([2]; 24 h vs 1 h, ref [19]) [%]
O=C(O)CN1CCN(CC(=O)O)CCN(CC(=O)O)CCN(CC(=O)O)CC1 [DOTA, 1,4,7,10-tetraazacyclododecane-1,4,7,10-tetraacetic acid] | 22.3 | – | –
O=C(O)CN1CCN(CC(=O)O)CCN(CC(=O)O)CC1 [NOTA, 1,4,7-triazacyclononane-1,4,7-triacetic acid] | 21.6 | – | –
^64Cu-NO2A-Aoc-BN(7-14) | – | 3.59 | 28
O=C(O)CN1CCCN(CC(=O)O)CCN(CC(=O)O)CCCN(CC(=O)O)CC1 [TETA] | 21.7 | – | –
